According to PMC8746696 (Molecules, 2021):

Tests used:
TDP1 = TDP1 (Homo sapiens, UniProt Q9NUW8); test: Real-time fluorescence detection of TDP1 activity (FAM/BHQ1 oligonucleotide biosensor); format: biochemical; conditions: concentration that inhibits the activity of the enzyme by 50%; read-out: TDP1 IC50
Source text: For real-time detection of TDP1 activity, we used the oligonucleotide biosensor based on the ability of TDP1 to remove fluorophore quenchers from the 3′-end of DNA [29]. The hexadecameric oligonucleotide carried 5(6)-carboxyfluorescein (FAM) at the 5′-end and fluorophore quencher BHQ1 (Black Hole Quencher-1) at the 3′-end. TDP1 inhibitors prevent the removal of fluorophore quenchers, thus reducing fluorescence intensity.
TDP1 activity was detected, as described by intensity measurement in a reaction of quencher removal from a fluorophore quencher–coupled DNA oligonucleotide catalyzed by TDP1. The reaction was carried out at different concentrations of inhibitors (the control samples contained 1% of DMSO). The reaction mixtures contained TDP1 buffer (50 mM Tris-HCl pH 8.0, 50 mM NaCl, and 7 mM β-mercaptoethanol), 50 nM biosensor, and an inhibitor being tested. Purified TDP1 (1.5 nM) triggered the reaction. The biosensor (5′-[FAM] AAC GTC AGGGTC TTC C [BHQ]-3′) was synthesized in the Laboratory of Nucleic Acid Chemistry at the Institute of Chemical Biology and Fundamental Medicine (Novosibirsk, Russia).
The reactions were incubated on a POLARstar OPTIMA fluorimeter (BMG LABTECH, GmbH, Ortenberg, Germany) to measure fluorescence every 60 s (ex. 485/em. 520 nm) during the linear phase (here, data from minute 0 to minute 8). The values of IC50 were determined using a six-point concentration response curve in a minimum of three independent experiments and were calculated using MARS Data Analysis 2.0 (BMG LABTECH, Ortenberg, Germany).

recombinant human TDP2 = target: T1, recombinant human TDP2 (Homo sapiens, UniProt O95551); test: Gel-based TDP2 activity assay (removal of 5'-tyrosine from oligonucleotide, PAGE); format: biochemical; design: key to Tdp2 activity, c 200 µM / Tdp2 (inhibitor concentration 1 mM): TDP2 active (+); -: inactive (−); conditions: for Tdp2 activity, c 200 µM: c 200 µM (Table S3 head); for Tdp2 (inhibitor concentration 1 mM) / remaining activity at 1000 µM: inhibitor 1 mM; for remaining activity at 1000 µM: residual enzyme activity, read-out: TDP2 (Inhibitor Concentration 1 mM), residual activity of TDP2
T1 sequence (O95551 1-362): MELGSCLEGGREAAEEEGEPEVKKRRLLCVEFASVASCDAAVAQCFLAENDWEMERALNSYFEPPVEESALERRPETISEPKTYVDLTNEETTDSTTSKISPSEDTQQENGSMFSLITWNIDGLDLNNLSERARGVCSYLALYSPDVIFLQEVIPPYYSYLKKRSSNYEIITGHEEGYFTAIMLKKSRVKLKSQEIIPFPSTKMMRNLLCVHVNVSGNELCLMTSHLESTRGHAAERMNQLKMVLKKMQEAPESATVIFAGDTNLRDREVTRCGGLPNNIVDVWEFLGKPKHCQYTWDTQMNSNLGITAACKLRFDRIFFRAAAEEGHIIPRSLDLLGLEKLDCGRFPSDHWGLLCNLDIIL
Experimental: We investigated the activity against the TDP2 enzyme for compounds 4–10, 12–15, and 17–19 (Table 1). TDP2 was tested for its ability to eliminate tyrosine residue from the 5’-end of the oligonucleotide substrate. The TDP2 reaction products were separated under denaturing conditions in polyacrylamide gel (PAGE). […] Note that as different assays formats were used for TDP1 and TDP2 inhibition, the value of these assays cannot be directly compared. A paper on derivatives of usnic acid as effective TDP1 inhibitors and mild inhibitors of TDP2 was recently published. […] More inhibitors of this enzyme have also been reported in the literature. Obviously, further work for increasing activity against TDP2 is needed.
The oligonucleotide with tyrosine residue on the 5′-end (5′-tyrosine-AAC GTC AGG GTC TTC C-FAM-3′) was used for the TDP2 enzyme activity assay. The TDP2 reaction products were separated under denaturing conditions in polyacrylamide gel (PAGE). The reaction was performed in a final volume of 20 μL using 100 nM substrate incubated with 200 nM recombinant human TDP2 in the absence or presence of the inhibitor for 10 min at 37 °C in a buffer containing 50 mM Tris-HCl, pH 8.0, 50 mM NaCl, 7 mM β-mercaptoethanol. Reactions were terminated by the addition of gel loading buffer contained 10% formamide, 7 M carbamide, 0.1% xylene cyanol, and 0,1% bromophenol blue. The samples were heated at 90 °C for 7 min before loading on the gel. The reaction products were separated by electrophoresis in a 20% denaturing PAGE with 7 M carbamide. A Typhoon FLA 9500 phosphorimager (GE Healthcare) was used for gel scanning and imaging. Each experiment was carried out in three independent replicates. The data were analyzed with QuantityOne 4.6.7 software.

HeLa cells [1] = test: Influence on topotecan cytotoxicity (sensitization, combination index); format: cell-based, human
Experimental: The inhibitors were studied, using their non-toxic concentration, to determine the cytotoxicity of topotecan, which is widely used in the treatment of cancer.
The concentration of these two compounds was increased to 10 μM and a more distinct effect was observed (Figure 3B). The combination index (CI) for different concentrations of topotecan and 5 at 10 μM was in the range 0.26–0.44, and for 8 at 10 μM, it was 0.18–0.30 (Supplementary Materials, Tables S1 and S2). CI value <1 indicates a synergistic effect of topotecan and compounds 5 and 8 [34].
The cell culture was monitored for three days.

HeLa cells [2] = test: as above; format: cell-based, human; conditions: compound 5 μM
[3] = Intrinsic cytotoxicity, EZ4U assay, HeLa; conditions: human, HeLa cells
Experimental: (§1) Next, we examined the intrinsic cytotoxicity of the compounds on HeLa cervical cancer cells and human embryonic kidney derived cells HEK293A.
(§2) Cytotoxicity of the compounds to HeLa (human cervical cancer) and HEK293A (human embryonic kidney) cell lines was examined using the EZ4U Cell Proliferation and Cytotoxicity Assay (Biomedica, Vienna, Austria), according to the manufacturer’s protocols. The cells were grown in Iscove’s modified Dulbecco’s medium (IMDM) with 40 μg/mL gentamicin, 50 IU/mL penicillin, 50 μg/mL streptomycin (MP Biomedicals, Waltham, MA, USA), and 10% of fetal bovine serum (Biolot, Saint Petersburg, Russia) in a 5% CO2 atmosphere. After the formation of a 30–50%monolayer, the tested compounds were added to the medium. […] The volume of the added reagents was 1/100 of the total volume of the culture medium, and the amount of DMSO was 1% of the final volume. Control cells were grown in the presence of 1% DMSO. The cell culture was monitored for three days.

HeLa cells [4] = test: Intrinsic cytotoxicity, EZ4U assay, HeLa
Experimental: as §1, §2

[5] = Intrinsic cytotoxicity, EZ4U assay, HEK293A; conditions: human, HEK293A cells
Experimental: as §1, §2

HeLa cells [6] = tested on: HeLa cells
Experimental: as §1, §2

Chain of TDP1 (Q9NUW8 whole entry): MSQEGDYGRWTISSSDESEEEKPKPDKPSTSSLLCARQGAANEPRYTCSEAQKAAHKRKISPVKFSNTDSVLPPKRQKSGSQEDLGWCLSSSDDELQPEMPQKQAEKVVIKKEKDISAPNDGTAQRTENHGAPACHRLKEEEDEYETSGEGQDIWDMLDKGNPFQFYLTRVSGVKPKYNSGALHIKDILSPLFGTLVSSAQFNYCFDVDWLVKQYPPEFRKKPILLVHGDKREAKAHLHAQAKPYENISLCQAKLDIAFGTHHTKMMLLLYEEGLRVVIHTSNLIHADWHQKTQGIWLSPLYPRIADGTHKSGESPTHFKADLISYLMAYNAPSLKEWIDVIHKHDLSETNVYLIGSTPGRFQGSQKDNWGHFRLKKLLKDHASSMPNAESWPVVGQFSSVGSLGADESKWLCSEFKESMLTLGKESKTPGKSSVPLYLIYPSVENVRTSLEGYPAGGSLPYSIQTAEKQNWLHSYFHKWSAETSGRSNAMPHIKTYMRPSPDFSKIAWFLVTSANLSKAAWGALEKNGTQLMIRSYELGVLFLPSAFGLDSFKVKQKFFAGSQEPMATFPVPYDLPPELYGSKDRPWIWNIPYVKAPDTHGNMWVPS

Row | Structure (SMILES) | IC50 (TDP1) [µM] | Tdp2 activity, c 200 µM (recombinant human TDP2) | Tdp2 (inhibitor concentration 1 mM) (recombinant human TDP2) | remaining activity at 1000 µM (recombinant human TDP2) [%] | CI (HeLa cells [1]; Dose Tpc 0.3 + compound 10 μM) | Effect (HeLa cells [1]; Dose Tpc 0.3 + compound 10 μM) | CI (HeLa cells [1]; Dose Tpc 0.5 + compound 10 μM) | Effect (HeLa cells [1]; Dose Tpc 0.5 + compound 10 μM) | CI (HeLa cells [1]; Dose Tpc 1.0 + compound 10 μM) | Effect (HeLa cells [1]; Dose Tpc 1.0 + compound 10 μM) | CI (HeLa cells [1]; Dose Tpc 2.0 + compound 10 μM) | Effect (HeLa cells [1]; Dose Tpc 2.0 + compound 10 μM) | CI (HeLa cells [1]; Dose Tpc 4.0 + compound 10 μM) | Effect (HeLa cells [1]; Dose Tpc 4.0 + compound 10 μM) | sensitizing effect on topotecan cytotoxicity (HeLa cells [2]) | CC50 at 72 h [3] [µM] | HeLa cell death (HeLa cells [4]; at 100 μM) | CC50 at 72 h [5] [µM] | HeLa cell death (HeLa cells [4]; at 20 μM) [%] | semi-toxic concentrations (HeLa cells [6])
1 | C[C@H](CCC(=O)NCCc1c[nH]c2ccccc12)[C@H]1CC[C@H]2[C@@H]3CC[C@@H]4C[C@H](OCc5ccccc5)CC[C@]4(C)[C@H]3C[C@H](O)[C@]12C [Compound 5, N-(2″-(1H-Indol-3′-yl)ethyl)-3α-benzyloxy-12α-hydroxy-5β-cholane-24-amide] | 0.24 ± 0.01 | + | + | 28 ± 5 | 0.4463 | 0.61 | 0.3748 | 0.76 | 0.3937 | 0.86 | 0.2628 | 0.95 | 0.4189 | 0.96 | greatest sensitizing effect | > 100 | 40% | > 100 | – | –
2 | C[C@H](CCC(=O)Nc1ccc(Br)cc1)[C@H]1CC[C@H]2[C@@H]3CC[C@@H]4C[C@H](OCc5ccccc5)CC[C@]4(C)[C@H]3C[C@H](O)[C@]12C [Compound 8, N-(4′-Bromophenyl)-3α-benzyloxy-12α-hydroxy-5β-cholane-24-amide] | 0.57 ± 0.3 | + | + | 47 ± 3 | – | – | 0.2446 | 0.67 | 0.2817 | 0.78 | 0.1757 | 0.92 | 0.3046 | 0.93 | greatest sensitizing effect | > 100 | maintaining this level of toxicity | > 100 | 40 | –
3 | C[C@H](CCC(=O)NCCCc1cc(C(C)(C)C)c(O)c(C(C)(C)C)c1)[C@H]1CC[C@H]2[C@@H]3CC[C@@H]4C[C@H](OCc5ccccc5)CC[C@]4(C)[C@H]3C[C@H](OCc3ccccc3)[C@]12C [Compound 10, N-(3″-(3′,5′-Di-tert-butyl-4′-hydroxyphenyl)propyl)-3α,12α-dibenzyloxy-5β-cholane-24-amide] | 0.37 ± 0.17 | + | + | 45 ± 6 | – | – | – | – | – | – | – | – | – | – | – | > 100 | – | > 100 | – | –
4 | COc1cc([C@@H]2c3cc4c(cc3[C@@H](O[C@@H]3O[C@@H]5CO[C@@H](C)O[C@H]5[C@H](O)[C@H]3O)[C@H]3COC(=O)[C@H]23)OCO4)cc(OC)c1O [Etoposide, reference compound] | – | – | – | – | – | – | – | – | – | – | – | – | – | – | – | 6.2 ± 0.6 | – | 5.9 ± 1.8 | – | micromolar
5 | CC[C@@]1(O)C(=O)OCc2c1cc1n(c2=O)Cc2cc3c(CN(C)C)c(O)ccc3nc2-1 [Topotecan, reference compound] | – | – | – | – | – | – | – | – | – | – | – | – | – | – | – | 0.9 ± 0.1 | – | 0.33 ± 0.07 | – | submicromolar
